Test results reported in patent publication US10906977B2, “Enhancing the therapeutic activity of immune checkpoint inhibitor” (Maine Medical Center Research Institute, priority 2016, dated 2021).

Experiments:
[1] = target: T1, β3-integrin (Homo sapiens, UniProt P05106+P06756); test: β3-integrin phosphorylation in endothelial cells attached to collagen peptides (Western blot); assay type: cell-based; settings: absence of growth factors; FIG. 7C
T1 construct: endogenous in cells; host or cells: HUVEC
Method: (§1) Endothelial cells (HUVECs or HRMVECs) were incubated in serum free media with 1 mM MgCl2, 0.2 mM MnCl2 in the presence of a Src inhibitor, PP2, (10 μM) a P38MAPK inhibitor, SB202190 (10 μM) or vehicle only (DMSO) for 10 min at 37° C. Treated cells were then seeded on to immobilized P-1 and P-2 and lysates were collected at 15 min.
(§2) Whole cell and CAM tissue lysates were collected in RIPA buffer supplemented with 1× protease inhibitor and 1× phosphatase inhibitor and were run on polyacrylamide gels using denaturing conditions. Prior to loading the gels, 6× sample buffer was added to each of the lysates (final concentration 1×) and boiled for five minutes. Twenty to 50 μg of total protein were loaded into each lane. […] Gels were run at 60 volts (v) until the dye front passed through the stacking gel, and then the voltage was increased to 100V for the remainder of the separation. Precision Plus protein standards (Bio-Rad) were used to visualize migration. Protein was transferred to nitrocellulose membranes using a wet tank system and blocked for 1 h using 10% non-fat dried milk in tris-buffered saline with 0.01% Tween-20 (TBS-T). […] Membranes were washed 3 times in TBS-T for five minutes. Blots were then incubated with HRP conjugated secondary antibodies (1:15000) in 1% non-fat milk in TBS-T for 1 h. […] Western blot bands were quantified using Image J software based on pixel intensity.

[2] = test system: P38MAPK; test: Phosphorylated P38MAPK in HRMVEC attached to collagen peptides (Western blot); assay type: cell-based, human; settings: cells attached to peptide; FIG. 6E
Method: as §1, §2

[3] = test system: PD-L1; test: PD-L1 in control and β3 integrin knock down T-cells stimulated with peptide (western blot); assay type: cell-based, human; settings: FIG. 33
Method: In order to confirm the functional role of integrin αvβ3 receptor in regulating the levels of the immune suppressive molecule PD-L1 by the XL313 cryptic collagen peptide P2, the expression of PD-L1 was examined in β3 integrin knock down and control transfected T-cells. Whole cell lysates from control transfected (Cont T-cells) and β3 integrin shRNA transfected T-cells (β3/KD) that were stimulated with control peptide (PC) or the XL313 cryptic collagen peptide (P2) were analyzed by western blot for expression of PD-L1.

[4] = test system: chick chorioallantoic membrane (CAM); test: Chick CAM angiogenesis induced by soluble RGD collagen peptides; assay type: in vivo
Method: The chick chorioallantoic membrane (CAM) assays were carried out with some modifications (19). For all experiments CAMs of 10-day-old chick embryos obtained from Charles River (North Franklin, Conn.) were separated from the shell membrane. Filter discs either non-treated (inflammation assays) pretreated (angiogenesis assays) with cortisone acetate (3.0 mg/ml) containing RPMI only or FGF-2 (40 ng). CAMs were either non-treated or treated topically with Mab XL313, XL166 or a non-specific control antibody (10 μg/embryo every 24 h for three consecutive treatments). […] At the end of the incubation period the embryos were sacrificed and the CAM tissues were analyzed. Angiogenesis was quantified by counting the number of angiogenic branching blood vessels within the area of the filter disc. The angiogenic index was determined by subtracting the mean number of blood vessel branch points from untreated CAMs from each experimental condition. Eight to twelve embryos were used per condition and experiments were repeated at least three times.

[5] = test system: Fak; test: Fak phosphorylation in endothelial cells attached to collagen peptides; assay type: cell-based, human; settings: serum free conditions
Method: Whole cell and CAM tissue lysates were collected in RIPA buffer supplemented with 1× protease inhibitor and 1× phosphatase inhibitor and were run on polyacrylamide gels using denaturing conditions. Prior to loading the gels, 6× sample buffer was added to each of the lysates (final concentration 1×) and boiled for five minutes. Twenty to 50 μg of total protein were loaded into each lane. For detection of proteins larger than 50 kD, 10% gels were used; for proteins smaller than 50 kD 15% gels were used. Gels were run at 60 volts (v) until the dye front passed through the stacking gel, and then the voltage was increased to 100V for the remainder of the separation. Precision Plus protein standards (Bio-Rad) were used to visualize migration. Protein was transferred to nitrocellulose membranes using a wet tank system and blocked for 1 h using 10% non-fat dried milk in tris-buffered saline with 0.01% Tween-20 (TBS-T). […] Western blot bands were quantified using Image J software based on pixel intensity.

[6] = test system: YAP; test: Nuclear YAP in endothelial cells attached to collagen peptides; assay type: cell-based, human
Method: Whole cell and CAM tissue lysates were collected in RIPA buffer supplemented with 1× protease inhibitor and 1× phosphatase inhibitor and were run on polyacrylamide gels using denaturing conditions. Prior to loading the gels, 6× sample buffer was added to each of the lysates (final concentration 1×) and boiled for five minutes. Twenty to 50 μg of total protein were loaded into each lane. […] Gels were run at 60 volts (v) until the dye front passed through the stacking gel, and then the voltage was increased to 100V for the remainder of the separation. Precision Plus protein standards (Bio-Rad) were used to visualize migration. Protein was transferred to nitrocellulose membranes using a wet tank system and blocked for 1 h using 10% non-fat dried milk in tris-buffered saline with 0.01% Tween-20 (TBS-T). […] Membranes were washed 3 times in TBS-T for five minutes. Blots were then incubated with HRP conjugated secondary antibodies (1:15000) in 1% non-fat milk in TBS-T for 1 h. Membranes were washed a second time as indicated above and exposed to chemiluminecent substrate for three minutes prior to exposure to autoradiography film in a dark room. Western blot bands were quantified using Image J software based on pixel intensity.

[7] = test system: P38MAPK; test: Phosphorylated P38MAPK in HUVECs attached to collagen peptides (Western blot); assay type: cell-based, human; settings: cells attached to peptide; FIG. 6D
Method: as §1, §2

T1 sequence (P05106 27-788): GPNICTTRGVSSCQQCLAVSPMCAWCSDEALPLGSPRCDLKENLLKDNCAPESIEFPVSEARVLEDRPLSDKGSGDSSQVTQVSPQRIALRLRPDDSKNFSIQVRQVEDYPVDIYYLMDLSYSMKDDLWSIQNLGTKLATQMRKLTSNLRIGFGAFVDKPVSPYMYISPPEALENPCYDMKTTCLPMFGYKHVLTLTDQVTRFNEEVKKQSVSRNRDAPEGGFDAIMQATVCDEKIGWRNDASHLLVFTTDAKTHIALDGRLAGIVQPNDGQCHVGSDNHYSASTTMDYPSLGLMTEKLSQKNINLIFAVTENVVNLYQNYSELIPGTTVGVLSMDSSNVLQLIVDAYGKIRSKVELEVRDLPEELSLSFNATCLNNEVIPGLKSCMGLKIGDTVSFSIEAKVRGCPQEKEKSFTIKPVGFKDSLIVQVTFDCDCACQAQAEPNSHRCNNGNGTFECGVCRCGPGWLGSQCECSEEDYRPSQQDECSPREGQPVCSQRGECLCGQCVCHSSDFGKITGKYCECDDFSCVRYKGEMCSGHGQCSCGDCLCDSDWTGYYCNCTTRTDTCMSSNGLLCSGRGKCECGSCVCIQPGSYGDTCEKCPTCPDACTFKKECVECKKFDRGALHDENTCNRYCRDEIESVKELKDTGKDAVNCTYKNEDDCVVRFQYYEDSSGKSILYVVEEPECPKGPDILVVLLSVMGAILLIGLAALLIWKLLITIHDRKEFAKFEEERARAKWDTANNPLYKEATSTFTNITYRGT
T1 sequence (P06756 31-889 limits assumed): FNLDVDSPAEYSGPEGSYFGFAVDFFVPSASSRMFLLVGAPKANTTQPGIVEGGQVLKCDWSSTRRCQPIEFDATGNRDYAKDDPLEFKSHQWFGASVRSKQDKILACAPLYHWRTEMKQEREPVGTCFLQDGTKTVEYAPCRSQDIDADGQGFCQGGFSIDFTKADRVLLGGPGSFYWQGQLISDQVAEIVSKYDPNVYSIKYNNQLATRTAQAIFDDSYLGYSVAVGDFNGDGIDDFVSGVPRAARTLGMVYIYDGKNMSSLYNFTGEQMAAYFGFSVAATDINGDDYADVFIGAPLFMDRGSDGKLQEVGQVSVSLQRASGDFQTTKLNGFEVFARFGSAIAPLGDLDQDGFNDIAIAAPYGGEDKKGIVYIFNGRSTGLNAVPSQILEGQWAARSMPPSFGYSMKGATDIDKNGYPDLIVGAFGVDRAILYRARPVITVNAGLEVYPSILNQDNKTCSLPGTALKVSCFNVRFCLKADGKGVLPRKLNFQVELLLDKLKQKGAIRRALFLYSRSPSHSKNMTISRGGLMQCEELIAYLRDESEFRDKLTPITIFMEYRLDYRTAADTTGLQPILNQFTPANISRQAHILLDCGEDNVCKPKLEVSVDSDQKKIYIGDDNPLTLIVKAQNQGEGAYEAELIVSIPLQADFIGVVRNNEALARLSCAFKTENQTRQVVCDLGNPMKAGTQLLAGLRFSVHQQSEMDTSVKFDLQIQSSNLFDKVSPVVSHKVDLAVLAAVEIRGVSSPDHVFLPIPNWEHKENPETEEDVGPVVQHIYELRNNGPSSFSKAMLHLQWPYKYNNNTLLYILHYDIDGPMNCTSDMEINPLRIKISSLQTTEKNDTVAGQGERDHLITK
T1 sequence (P06756 891-1048 partner limits assumed): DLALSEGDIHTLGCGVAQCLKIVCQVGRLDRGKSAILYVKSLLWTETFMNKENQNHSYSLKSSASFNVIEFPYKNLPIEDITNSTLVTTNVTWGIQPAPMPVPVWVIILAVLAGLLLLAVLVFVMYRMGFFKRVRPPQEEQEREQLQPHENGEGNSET

CQGPRGDKGEC [Mab P-2]
increase of β3 phosphorylation as compared to P-1 [1]: over 3 fold | phosphorylation of P38MAPK in HRMVEC, as compared to P-1 [2]: enhanced phosphorylation of P38MAPK | expression of PD-L1 in control transfected T-cells [3]: enhanced expression of PD-L1 | expression of PD-L1 in β3 integrin knock down cells [3]: little ability to enhance the expression of PD-L1 | dose dependent induction of CAM angiogenesis ([4]; FIG. 5B): dose dependently enhanced angiogenesis | dose of maximum induction of angiogenesis ([4]; FIG. 5B): 100 ng/CAM | induction of CAM angiogenesis as compared to no treatment ([4]; soluble peptide, FIG. 5C): induced angiogenesis | Fak phosphorylation following ligation of peptide [5]: Minimal Fak phosphorylation | nuclear localized YAP (staining) as compared to P-1 ([6]; by 15 minutes, FIG. 8A): enhanced level of nuclear localized YAP | increase of nuclear YAP as compared to P-1 (Western blot) ([6]; cells attached to peptide, FIG. 8B): approximately 2 fold | phosphorylation of P38MAPK in HUVECs, as compared to P-1 [7]: enhanced phosphorylation of P38MAPK
